For data set [1], the system named is NF-κB in THP1-Blue NF-κB cells. The data set is described as follows: NF-κB activity assay (SEAP reporter, LPS-induced). Format: cell-based. As to conditions: 20 μM, LPS 10 ng/mL. As to the method: THP1-Blue NF-κB cells, NF-κB secreted embryonic alkaline phosphatase (SEAP) reporter monocytes (InvivoGen, USA), were assayed after 20–24 h of incubation following the manufacturer’s protocol. Briefly, cells were seeded at 1 × 10^6 cells/mL in RPMI medium in 96-well plates (180 μL) and treated with complex 3 or 4, Lipopolysaccharide (LPS) (10 ng/mL; […] The next day, NF-κB activation was assessed via the secretion of SEAP. Supernatants (20 μL) were transferred to 96-well plates, and 180 μL of Quanti-Blue was added. Plates were incubated for 2 h at 37°C, and absorbance was measured at 600 nm using an […] 200 PRO microplate reader (TECAN, Switzerland).

In another data set the test system is THP1-Blue NF-κB cells. Description: MTT viability assay of THP1-Blue NF-κB cells. Format: cell-based. The conditions noted are these: concentrations of the NF-κB activity assay, overnight. As to the method:
A total of 20 μL of sterile filtered MTT (Sigma-Aldrich, Merck, Germany) solution (5 mg/mL in PBS) was added to the remaining overnight culture of THP1-Blue NF-κB cells from the above NF-κB activity assay in 96-well plates, which were incubated at 37°C (see above). After 2 h of incubation at 37°C, the supernatant was removed, and the purple formazan product generated in the cells was dissolved by the addition of 100 μL of DMSO to each well. The plates were then gently shaken for 30 s at room temperature to dissolve the precipitates. The absorbance was measured at 570 nm using an […] 200 PRO microplate reader (TECAN, Switzerland) ([43]).
On the technique in general: Tetrazolium assays rely on reduction of a dye to a coloured formazan, in cell work by metabolically active cells.

Another data set concerns the target T1, IKKβ (Homo sapiens, UniProt O14920).
T1 construct: purchased BPS Bioscience
T1 sequence (O14920 1-756): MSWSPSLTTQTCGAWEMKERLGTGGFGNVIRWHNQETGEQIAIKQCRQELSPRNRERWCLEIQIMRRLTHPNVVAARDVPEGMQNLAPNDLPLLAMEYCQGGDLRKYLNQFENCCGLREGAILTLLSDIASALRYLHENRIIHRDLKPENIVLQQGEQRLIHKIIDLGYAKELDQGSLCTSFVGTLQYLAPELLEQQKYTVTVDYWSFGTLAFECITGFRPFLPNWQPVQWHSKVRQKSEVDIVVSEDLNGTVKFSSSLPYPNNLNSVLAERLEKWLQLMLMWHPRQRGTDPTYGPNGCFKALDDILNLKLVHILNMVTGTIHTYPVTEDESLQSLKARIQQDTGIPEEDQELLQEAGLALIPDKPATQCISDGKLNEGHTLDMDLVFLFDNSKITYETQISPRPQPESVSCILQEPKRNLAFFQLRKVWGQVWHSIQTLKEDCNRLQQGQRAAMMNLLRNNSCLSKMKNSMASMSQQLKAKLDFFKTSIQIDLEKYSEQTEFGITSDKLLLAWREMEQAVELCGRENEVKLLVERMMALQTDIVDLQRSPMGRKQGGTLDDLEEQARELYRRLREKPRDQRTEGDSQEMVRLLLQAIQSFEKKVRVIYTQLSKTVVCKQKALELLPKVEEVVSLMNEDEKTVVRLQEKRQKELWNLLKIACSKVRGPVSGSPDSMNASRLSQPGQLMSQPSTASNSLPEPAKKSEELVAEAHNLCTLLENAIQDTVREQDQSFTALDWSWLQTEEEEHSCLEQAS
Description: IKKβ inhibition assay (IKKβ Kinase Assay Kit). Format: biochemical. As to conditions: fivefold higher concentration than 1 μM. As to the method:
IκB kinase beta (IKKβ) inhibition was determined using the IKKβ Kinase Assay Kit (BPS Bioscience, San Diego, California, USA). […] Kinase-Glo® MAX (Promega, #V6071, Madison, Wisconsin, USA) was used as the detection reagent, with an incubation time of 15 min. Blank values were subtracted from all measurements. Luminescence was measured with an integration time of 1 s using a Spark Microplate Reader (Tecan, Switzerland).

In data set [2] the test system is CAL 27 cell line. Set-up: method as in PMID 32060973, PMID 32099333. As to conditions: CAL 27 cell line ref 46, 47; cited from earlier work.
Data set [3] deals with SCC-9 cell line. Set-up: method as in PMID 32628350, PMID 25450696. As to conditions: SCC-9 cell line ref 48, 49; cited from earlier work.
In data set [4] the test system is FaDu cell line. Also noted: method as in PMID 32628350. As to conditions: FaDu cell line ref 48; cited from earlier work.
For a further data set, the system named is Detroit 562 cell line. Set-up: method as in PMID 32121279, PMID 19317462. The conditions noted are these: Detroit 562 cell line ref 50, 51; cited from earlier work.
Data set [5] concerns Hep-2 cell line. Also noted: method as in PMID 23513724. As to conditions: HPV-positive Hep-2 cell line ref 52; cited from earlier work.
Another data set relates to KB cell line. Set-up: method as in PMID 36278627. As to conditions: 48 h of treatment ref 53; cited from earlier work.
A further data set deals with HGF. Also noted: method as in PMID 34657625. As to conditions: concentration range 0.1–20 μM ref 54; cited from earlier work.
A further data set relates to A549 cell line. Set-up: method as in PMID 32598409. As to conditions: A549 cell line ref 33; cited from earlier work.
Data set [6] deals with CAL 27 cell line. As to conditions: cited from earlier work.
For data set [7], the system named is CAL 27 cell line. Set-up: method as in PMID 32099333, PMID 25767602. The conditions noted are these: CAL 27 cell line ref 47, 55; cited from earlier work.
In data set [8] the test system is SCC-9 cell line. Also noted: method as in PMID 25450696. The conditions noted are these: SCC-9 cell line ref 49; cited from earlier work.
Data set [9] relates to FaDu cell line. Set-up: method as in PMID 25767602. The conditions noted are these: FaDu cell line ref 55; cited from earlier work.
Data set [10] relates to Hep-2 cell line. As to conditions: Hep-2 cell line ref 56; cited from earlier work.
In a further data set the test system is OSCC cells. Also noted: method as in PMID 32391111. As to conditions: Ohnishi et al. ref 57; cited from earlier work.

Each structure is given as a SMILES string. Values after ≈ are worked out from the molar mass of the structure shown.

Turning to `COc1cc(/C=C/C(=O)CC(=O)/C=C/c2ccc(O)c(OC)c2)ccc1O` [Curcumin, curcumin], the “Reduction of LPS-induced NF-κB activation” value in data set [1] is “approximately 60%”. For the same compound, in the data set on THP1-Blue NF-κB cells, the “Cytotoxicity in THP1-Blue NF-κB cells (MTT)” value is listed as “Neither complex 3, complex 4, nor curcumin exhibited significant cytotoxicity”. At IKKβ, the “Inhibition of IKKβ activity” value is reported as “approximately 30%”. For the same compound, the IC50 in the data set with CAL 27 cell line [2] is 49.9 µM; in the data set on SCC-9 cell line [3], 40.9 µM; in the data set with FaDu cell line [4], 24.8 µM; in the data set on Hep-2 cell line [5], approximately 50 µM; in the data set with KB cell line, 8.84 mg/L (≈ 24 µM); in the data set on A549 cell line it was 13.1 µM. The Concentration showing cytotoxicity entry in the data set with Detroit 562 cell line is on record as “around 20 μM”. Besides, the “Effect on cell viability” value with HGF was “did not significantly affect cell viability”. Also, the “Concentration reducing cell migratory capacity” value with CAL 27 cell line [6] (CAL 27 cell line ref 47, 55) was 50 µM. In addition, the “Concentration significantly inhibiting migration” value in the data set on CAL 27 cell line [6] (CAL 27 cells, Ma et al. ref 47) was 100 µM. Also, the “Concentration inhibiting colony formation” value in the data set with CAL 27 cell line [7] was not below 12.5 µM. For the same compound, the figures for the “Concentration suppressing colony formation” value in the data set with SCC-9 cell line [8] and in the data set on FaDu cell line [9] were 40 µM and 12.5 µM, respectively. Besides, the “Concentration with significant inhibition of colony formation and cell migration” value in the data set with Hep-2 cell line [10] is 20 µM. The Concentration inhibiting migration with OSCC cells is 15 µM.

By IC50 is commonly meant the concentration at which inhibition is half-maximal.

Values taken from article PMC12754617, “Ruthenium-enhanced curcumin derivatives target tumor growth and cancer-related inflammation in head and neck cancer models” (Frontiers in Oncology, 2025).
